Here are results for 1 molecule from US20260167641A1, “CRYSTAL FORM OF IMIDAZOPYRAZINE DERIVATIVE, PREPARATION METHOD THEREFOR AND USE THEREOF” (TRANSTHERA SCIENCES (NANJING), INC., priority 2022, published 2026).

The nature of the data set: Pharmacokinetic evaluation test in rats. It counts as in vivo, SD rats. Conditions: p.o. 100 mg/kg. The procedure:
• Animals: male SD rats • Animal administration and sample collection: Crystal forms I, II, and III were each dissolved in a mixture of 20% PEG400+80% (20% Captisol in 0.5% MC) to prepare administration formulation suspensions. The administration formulations were intragastrically administered to the SD rats at a dose of 100 mg/kg. Blood samples were collected at time points of 15 min, 30 min, 1 h, 2 h, 4 h, 6 h, 8 h, 24 h, 48 h, 72 h, and […] after administration.
One day before administration, the animals underwent jugular vein catheterization. After administration, about 300 μL of blood samples were collected via the jugular vein and then placed into anticoagulation tubes containing EDTA-K2. The blood samples were centrifuged at 4° C. and 8000 rpm for 10 min to yield plasma samples, which were prepared within 30 min after blood sample collection. The plasma samples were stored in a refrigerator at −80° C. before tests.
The samples to be tested were taken out from the refrigerator at −80° C., naturally thawed at room temperature, and then vortexed for 5 min. 20 μL of each of the 20-fold diluted plasma samples was precisely pipetted into a 1.5 mL centrifuge tube, and 300 μL of an internal standard working solution at a concentration of 10 ng/mL was added. The mixture was uniformly mixed, vortexed for 5 min, and then centrifuged at 12000 rpm for 5 mun.
50 μL of the supernatant was precisely pipetted into a 96-well plate to which water was added at 150 μL/well in advance, uniformly mixed by vortexing for 5 min, and analyzed by LC-MS/MS.
The sample to be tested was taken out from the refrigerator at −80° C., naturally thawed at room temperature, and then vortexed for 5 min. 2 μL of the plasma sample was precisely pipetted and then added, together with 28 μL of blank plasma, to a 1.5 mL centrifuge tube, and 450 μL of an internal standard working solution (a solution of tolbutamide in acetonitrile) at a concentration of 100 ng/mL was added. The mixture was uniformly mixed, vortexed for 5 min, and then centrifuged at 12000 rpm for 5 min. 50 μL of the supernatant was precisely pipetted into a 96-well plate to which water was added at 150 μL/well in advance, uniformly mixed by vortexing for 5 min, and analyzed by LC-MS/MS.
The test compound concentrations were output by Analyst 1.7.1 of AB Sciex. Parameters such as mean, standard deviation, and coefficient of variation were calculated by Microsoft Excel. PK parameters were calculated by Pharsight Phoenix 8.2 software NCA (Tmax was in median).

The mark [1] stands for this setting: male SD rats, mean, n = 3, 100 mg/kg.

For `Nc1nccn2c(C34CCC(NC(=O)CN5CCOCC5)(CC3)C4)nc(-c3ccc(C(=O)Nc4cc(C(F)(F)F)ccn4)cc3)c12` (single isomer, unassigned) [Crystal form II, 4-(8-amino-3-(4-(2-morpholinoacetamido)bicyclo[2.2.1]heptan-1-yl)imidazo[1,5-a]pyrazin-1-yl)-N-(4-(trifluoromethyl)pyridin-2-yl)benzamide], the Pharmacokinetic properties result (SD rats) is “very good pharmacokinetic properties”. Under setting [1], the “AUCinf—obs” value turned out to be 2545.383 µg·h/mL and the AUClast was found to be 2515.536 µg·h/mL. For the same molecule, the highest concentration (Cmax) (male, SD, rat, plasma, po, 100 mg/kg, male SD rats, mean, n = 3, read-out: Cmax) worked out at 145 µg/mL. Also, the half-life (male, SD, rat, plasma, po, 100 mg/kg, male SD rats, mean, n = 3, read-out: tz1/2 (terminal half-life) (converted)) is 7.74 h. Besides, under “male, SD, rat, plasma, po, 100 mg/kg, male SD rats, n = 3, Tmax in median, read-out: Tmax”, the Tmax was 2 h.
